Source: patent publication US11420947B2, “(S)-n-hydroxy-2-(2-(4-methoxyphenyl)butanamido)thiazole-5-carboxamide and pharmaceutically acceptable salts thereof” (TRANSLATIONAL DRUG DEVELOPMENT, LLC, priority 2018, dated 2022)
pIC50: −log10 of the molar value.

Tests used:
Test in all cases: CellTiter-Glo cell viability assay
Type in all cases: cell-based
BT474 = settings: for pIC50: Homo sapiens, BT-474, BT474, BREAST, Ductal Carcinoma, 72 hours
Procedure: (§1) Cell viability in the presence of varying concentrations of the above listed compounds at different time points was used to assess cytotoxicity and the effect of the compounds on cell proliferation.
(§2) Cell viability was measured by the CellTiter-Glo® cell viability assay from Promega (Madison, Wis.). The CellTiter-Glo® Luminescent Cell Viability Assay is a homogeneous method to determine the number of viable cells in culture based on quantitation of the ATP present, which signals the presence of metabolically active cells. Following treatment, CellTiter-Glo® is added to treatment wells and incubated at 37° C. luminescence values were measured at using a Molecular Devices Spectramax microplate reader
(§3) Cells were grown to 70% confluency, trypsinized, counted, and seeded in 96 well flat-bottom plates at a final concentration of 2.5×10^3-5×10^3 cells/well (Day 0). Cells were allowed to incubate in growth media for 24 hours. Treatment with the test agents or standard agents began on Day 1 and continued for 72 hours. At the 72-hour timepoint, treatment containing media was removed. Viable cell numbers are quantified by the CellTiter-Glo® cell viability assay as described above. Results from these studies were used to calculate an IC50 value (concentration of drug that inhibits cell growth by 50 percent of control) for each compound.
(§4) For single agent and combination studies, data from each experiment was collected and expressed as % Cell Growth using the following calculation: % Cell Growth=(ftest/fvehicle)×100
(§5) Where test is the fluorescence of the tested sample, and fvehicle is the fluorescence of the vehicle in which the drug is dissolved. Dose response graphs and IC50 values were generated using Prism 6 software (GraphPad) using the following equation: Y=(Top-Bottom)/(1+10^((logIC^50^-X)-HillSlope))

OCI-Ly3 = settings: for pIC50: Homo sapiens, OCI-Ly3, HEMATOPIETIC, DLBCL, 72 hours
Procedure: as §1, §2, §3, §4, §5

Hs852T = settings: for pIC50: Hs852T, MELANOMA, 72 hours
Procedure: as §1, §2, §3, §4, §5

KMS-34 = settings: for pIC50: KMS-34, HEMATOPIETIC, MM, 72 hours
Procedure: as §1, §2, §3, §4, §5

SNU-1 = settings: for pIC50: Homo sapiens, SNU1, SNU-1, GASTRIC, Carcinoma, 72 hours
Procedure: as §1, §2, §3, §4, §5

K562 = settings: for pIC50: Homo sapiens, K562, HEMATOPIETIC, CML, 72 hours
Procedure: as §1, §2, §3, §4, §5

A204 = settings: for pIC50: Homo sapiens, A204, RHABDOMYOSARCOMA, Muscle, 72 hours
Procedure: as §1, §2, §3, §4, §5

RKO = settings: for pIC50: Homo sapiens, RKO, COLON, CRC, 72 hours
Procedure: as §1, §2, §3, §4, §5

NCI-H820 = settings: for pIC50: NCI-H820, LUNG, NSCLC, 72 hours
Procedure: as §1, §2, §3, §4, §5

MV411 = settings: for pIC50: Homo sapiens, MV4-11, MV411, HEMATOPIETIC, AML, 72 hours
Procedure: as §1, §2, §3, §4, §5

KMM-1 = settings: for pIC50: KMM-1, HEMATOPIETIC, MM, 72 hours
Procedure: as §1, §2, §3, §4, §5

MeWo = settings: for pIC50: Homo sapiens, MeWo, MELANOMA, LN Met, 72 hours
Procedure: as §1, §2, §3, §4, §5

G401 = settings: for pIC50: Homo sapiens, G-401, G401, RENAL, Rhabdoid Tumor, 72 hours
Procedure: as §1, §2, §3, §4, §5

Huh-7-luc = settings: for pIC50: Huh-7-luc, LIVER, HCC, 72 hours
Procedure: as §1, §2, §3, §4, §5

MDA-MB-157 = settings: for pIC50: Homo sapiens, MDA-MB-157, BREAST, Medullary Carcinoma, 72 hours
Procedure: as §1, §2, §3, §4, §5

NCI-H1963 = settings: for pIC50: Homo sapiens, NCI-H1963, LUNG, Carcinoma, 72 hours
Procedure: as §1, §2, §3, §4, §5

Raji = settings: for pIC50: Homo sapiens, Raji, HEMATOPIETIC, Burkitt’s, 72 hours
Procedure: as §1, §2, §3, §4, §5

THP-1 = settings: for pIC50: Homo sapiens, THP-1, HEMATOPIETIC, AML, 72 hours
Procedure: as §1, §2, §3, §4, §5

HT-29 = settings: for pIC50: Homo sapiens, HT-29, COLON, CRC, 72 hours
Procedure: as §1, §2, §3, §4, §5

A549 = settings: for pIC50: Homo sapiens, A549, LUNG, NSCLC, 72 hours
Procedure: as §1, §2, §3, §4, §5

KG-1 = settings: for pIC50: Homo sapiens, KG-1, HEMATOPIETIC, AML, 72 hours
Procedure: as §1, §2, §3, §4, §5

DOHH-2 = settings: for pIC50: Homo sapiens, DOHH-2, HEMATOPIETIC, Lymphoma, 72 hours
Procedure: as §1, §2, §3, §4, §5

A498 = settings: for pIC50: Homo sapiens, A498, RENAL, RCC-VHL mut, 72 hours
Procedure: as §1, §2, §3, §4, §5

SUM149PT = settings: for pIC50: Homo sapiens, SUM149PT, BREAST, IBC, 72 hours
Procedure: as §1, §2, §3, §4, §5

MSTO-211H = settings: for pIC50: Homo sapiens, MSTO-211H, LUNG, Mesothelioma, 72 hours
Procedure: as §1, §2, §3, §4, §5

## CCC(C(=O)Nc1ncc(C(=O)NO)s1)c1ccc(OC)cc1 (racemic) [#1, N-hydroxy-2-(2-(4-methoxyphenyl)butanamido)thiazole-5-carboxamide]
BT474
  pIC50: 6.00
OCI-Ly3
  pIC50: 7.19
Hs852T
  pIC50: 6.31
KMS-34
  pIC50: 7.82
SNU-1
  pIC50: 6.29
K562
  pIC50: 6.84
A204
  pIC50: 7.48
RKO
  pIC50: 6.57
NCI-H820
  pIC50: 7.07
MV411
  pIC50: 8.15
KMM-1
  pIC50: 7.70
MeWo
  pIC50: 6.80
G401
  pIC50: 7.04
Huh-7-luc
  pIC50: 6.73
MDA-MB-157
  pIC50: 6.77
NCI-H1963
  pIC50: 6.71
Raji
  pIC50: 6.98
THP-1
  pIC50: 7.19
HT-29
  pIC50: 6.87
A549
  pIC50: 7.12
KG-1
  pIC50: 7.66
DOHH-2
  pIC50: 7.80
A498
  pIC50: 7.20
SUM149PT
  pIC50: 6.72
MSTO-211H
  pIC50: 6.89

## CC[C@H](C(=O)Nc1ncc(C(=O)NO)s1)c1ccc(OC)cc1 [#1a, (S)—N-hydroxy-2-(2-(4-methoxyphenyl)butanamido)thiazole-5-carboxamide]
BT474
  pIC50: 6.84
BT474; ratio of IC50, BT474
  #1/#1a: 6.9
  #1b/#1a: 20.83
OCI-Ly3
  pIC50: 7.46
OCI-Ly3; ratio of IC50, OCI-Ly3
  #1/#1a: 1.86
  #1b/#1a: 4.86
Hs852T
  pIC50: 7.27
Hs852T; ratio of IC50, Hs852T
  #1/#1a: 9.07
  #1b/#1a: 22.96
KMS-34
  pIC50: 7.89
KMS-34; ratio of IC50, KMS-34
  #1/#1a: 1.15
  #1b/#1a: 5.15
SNU-1; ratio of IC50, SNU-1
  #1/#1a: 3.86
  #1b/#1a: 10.63
K562
  pIC50: 7.11
K562; ratio of IC50, K562
  #1/#1a: 1.86
  #1b/#1a: 5.1
A204
  pIC50: 7.27
A204; ratio of IC50, A204
  #1/#1a: 0.61
  #1b/#1a: 3.15
RKO
  pIC50: 6.84
RKO; ratio of IC50, RKO
  #1/#1a: 1.84
  #1b/#1a: 9.37
NCI-H820
  pIC50: 7.27
NCI-H820; ratio of IC50, NCI-H820
  #1/#1a: 1.57
  #1b/#1a: 7.37
MV411
  pIC50: 8.22
MV411; ratio of IC50, MV411
  #1/#1a: 1.17
  #1b/#1a: 3.83
KMM-1
  pIC50: 7.72
KMM-1; ratio of IC50, KMM-1
  #1/#1a: 1.05
  #1b/#1a: 5.53
MeWo
  pIC50: 7.08
MeWo; ratio of IC50, MeWo
  #1/#1a: 1.9
  #1b/#1a: 7.37
G401
  pIC50: 7.30
G401; ratio of IC50, G401
  #1/#1a: 1.82
  #1b/#1a: 8.14
Huh-7-luc
  pIC50: 7.17
Huh-7-luc; ratio of IC50, Huh-7-luc
  #1/#1a: 2.72
  #1b/#1a: 7.25
MDA-MB-157
  pIC50: 7.05
MDA-MB-157; ratio of IC50, MDA-MB-157
  #1/#1a: 1.9
  #1b/#1a: 6.27
NCI-H1963
  pIC50: 7.59
NCI-H1963; ratio of IC50, NCI-H1963
  #1/#1a: 7.54
  #1b/#1a: 15.65
Raji
  pIC50: 7.44
Raji; ratio of IC50, Raji
  #1/#1a: 2.92
  #1b/#1a: 7.83
THP-1
  pIC50: 7.49
THP-1; ratio of IC50, THP-1
  #1/#1a: 2.03
  #1b/#1a: 6.13
HT-29
  pIC50: 7.37
HT-29; ratio of IC50, HT-29
  #1/#1a: 3.16
  #1b/#1a: 9.53
A549
  pIC50: 7.28
A549; ratio of IC50, A549
  #1/#1a: 1.46
  #1b/#1a: 7.65
KG-1
  pIC50: 7.92
KG-1; ratio of IC50, KG-1
  #1/#1a: 1.83
  #1b/#1a: 12.33
DOHH-2
  pIC50: 7.77
DOHH-2; ratio of IC50, DOHH-2
  #1/#1a: 0.94
  #1b/#1a: 7.94
A498
  pIC50: 7.33
A498; ratio of IC50, A498
  #1/#1a: 1.34
  #1b/#1a: 7.49
SUM149PT
  pIC50: 7.13
SUM149PT; ratio of IC50, SUM149PT
  #1/#1a: 2.58
  #1b/#1a: 8.27
MSTO-211H
  pIC50: 7.28
MSTO-211H; ratio of IC50, MSTO-211H
  #1/#1a: 2.46
  #1b/#1a: 6.77

## CC[C@@H](C(=O)Nc1ncc(C(=O)NO)s1)c1ccc(OC)cc1 [#1b, (R)—N-hydroxy-2-(2-(4-methoxyphenyl)butanamido)thiazole-5-carboxamide]
BT474
  pIC50: 5.52
OCI-Ly3
  pIC50: 6.77
Hs852T
  pIC50: 5.91
KMS-34
  pIC50: 7.17
SNU-1
  pIC50: 5.85
K562
  pIC50: 6.40
A204
  pIC50: 6.77
RKO
  pIC50: 5.87
NCI-H820
  pIC50: 6.40
MV411
  pIC50: 7.64
KMM-1
  pIC50: 6.98
MeWo
  pIC50: 6.21
G401
  pIC50: 6.39
Huh-7-luc
  pIC50: 6.31
MDA-MB-157
  pIC50: 6.25
NCI-H1963
  pIC50: 6.39
Raji
  pIC50: 6.55
THP-1
  pIC50: 6.71
HT-29
  pIC50: 6.39
A549
  pIC50: 6.40
KG-1
  pIC50: 6.83
DOHH-2
  pIC50: 6.87
A498
  pIC50: 6.45
SUM149PT
  pIC50: 6.21
MSTO-211H
  pIC50: 6.45
